Values after ≈ are worked out from the molar mass of the structure shown.
Assays:
[1] = Solubility in xylene; format: physicochemical; settings: organic solvent or mixture, o-xylene, 20° C., dark, liquid chromatography
Method: To illustrate the improved solubility in a common formulation solvent, xylene, of the compounds according to the invention, solubility tests were carried out with certain of these compounds and closely related compounds known from the literature. The test method is described below.
The compound (200 mg) was equilibrated with solvent (0.5 ml of o-xylene at 20° C. in the dark for 48 hours). After equilibration, the supernatant liquors were removed, centrifuged and then filtered. An aliquot portion of this (0.1 ml) was made up to volume (1 to 100 ml) with acetonitrile and then analyzed against standards by means of liquid chromatography.

[2] = system: Spodoptera littoralis larvae; assay: Insecticidal activity, sprayed diet (Test 1 (a)), toxicity vs parathion; format: in vivo, Egyptian cotton leafworm (Spodoptera littoralis); settings: second instar larvae; mortality 7 days after spraying; 50% mortality basis; standard parathion = 100
Method: (§1) The insecticidal and ovicidal activities of the compounds of the invention were assessed employing the pests, Egyptian cotton leafworm (Spodoptera littoralis, S.l.), mosquito (Aedes aegypti, A.a.) and eggs of Spodoptera littoralis, S.l.ov.
(§2) The test methods used for each species are described below. In each case the tests were conducted under normal insectary conditions (28° C.[…]; fluctuating light and humidity).
(§3) In each instance, the toxicity of the compound of the invention was compared to that of a standard pesticide (parathion), its relative toxicity then being expressed in terms of the relationship between the amount of compound of the invention and the amount of the standard pesticide required to produce the same percentage (50%) of mortality in the test insect. By assigning the standard pesticide an arbitrary rating of 100, the toxicities of the compounds of the invention were expressed in terms of the toxicity indices, which compares the toxicity of the compounds of the invention with that of the standard pesticide.
(a) Spodoptera littoralis--A solution or suspension of the test compound was made up over a range of concentrations in 10% acetone/water containing 0.025% Triton X100 (as surfactant). These solutions were sprayed using a logarithmic spraying machine onto petri dishes containing a nutritious diet on which the Spodoptera littoralis larvae had been reared. When the spray deposit had dried each dish was infested with 10 second instar larvae. Mortality assessments were made 7 days after spraying.

[3] = system: eggs of Spodoptera littoralis; assay: Ovicidal activity, sprayed eggs (Test 1 (c)), toxicity vs parathion; format: in vivo, Egyptian cotton leafworm (Spodoptera littoralis); settings: eggs less than 24 hours old; approximately five days; 50% mortality basis; standard parathion = 100
Method: as §1, §2
as §3, with “pesticide. That is to say, a test compound having a Toxicity Index of 50 would be half as active, while one having a Toxicity Index of 200 would be twice as active as the standard pesticide.” for “pesticide.”
(c) Spodoptera littoralis (ovicide)--Solutions as described in (a) above were prepared. Eggs less than 24 hours old were obtained as follows. Adult Spodoptera littoralis were held in large plastic cylinders containing blotting paper on which the moths laid their batches of eggs. Egg batches containing approximately 60-70 eggs were cut from the blotting paper with a 1 cm surround. These were placed, eggs uppermost, on filter paper in the deeper half of 5 cm disposable petri dishes and each batch of eggs was then sprayed with a different test solution or the control solution. The dishes were covered until the control eggs had hatched, approximately five days. The percentage ovicidal mortality was then calculated.

[4] = system: Aedes aegypti larvae; assay: Insecticidal activity, larvae in treated water (Test 1 (b)), toxicity vs parathion; format: in vivo, mosquito (Aedes aegypti); set-up: key: Toxicity Index: parathion = 100; 200 = twice as active, 50 = half; settings: early fourth instar larvae; final mortality when all larvae emerged as adults or died; 50% mortality basis; standard parathion = 100
Method: as §1, §2
as §3, with “pesticide. That is to say, a test compound having a Toxicity Index of 50 would be half as active, while one having a Toxicity Index of 200 would be twice as active as the standard pesticide.” for “pesticide.”
(b) Aedes aegypti--Several solutions of the test compound of varying concentration were prepared in acetone. 100 microliter quantities were added to 100 milliliters of tap water, the acetone being allowed to evaporate off. Ten early fourth instar larvae were placed in the test solution; after 48 hours the (surviving) larvae were fed with animal feed pellets, and the final percentage mortality assessed when all the larvae had either pupated and emerged as adults or died.

Structure (SMILES)	solubility at 48 h [1] [µg/mL]	Toxicity Index S.l. [2]	Toxicity Index S.l.ov. [3]	Toxicity Index A.a. [4]
O=C(NC(=O)N(Sc1ccccc1[N+](=O)[O-])c1ccc(OC(F)(F)F)cc1)c1ccccc1Cl [Example 1, 2-Chloro-N-[[[4-(trifluoromethoxy)phenyl]-N-[(2-nitrophenyl)thio]amino]carbonyl]benzamide]	3700 (≈ 7.23 mM)	750	210	220
O=C(NC(=O)c1ccccc1Cl)Nc1ccc(OC(F)(F)F)cc1 [1-(4-trifluoromethoxy-phenyl)-3-(2-chloro-benzoyl)-urea, reference compound]	2300 (≈ 6.41 mM)	–	–	–
O=C(NC(=O)c1c(F)cccc1F)Nc1ccc(Oc2ccc(C(F)(F)F)cc2Cl)cc1 [1-(4-(4-trifluoromethyl-2-chlorophenoxy)phenyl)-3-(2,6-difluorobenzoyl)urea, reference compound]	5700 (≈ 12.1 mM)	–	–	–
O=C(NC(=O)N(Sc1ccc(Cl)cc1)c1ccc(Oc2ccc(C(F)(F)F)cc2Cl)cc1)c1ccccc1Cl [Example 30]	–	670	0	220
O=C(NC(=O)N(SC(Cl)(Cl)Cl)c1ccc(Cl)cc1)c1c(F)cccc1F [Example 14]	–	10	560	6
O=C(NC(=O)N(Sc1ccccc1)c1ccc(Oc2ccc(C(F)(F)F)cc2Cl)cc1)c1ccccc1Cl [Example 29]	–	930	0	330
O=C(NC(=O)N(Sc1ccc(Cl)cc1)c1ccc(C(F)(F)F)cc1)c1c(F)cccc1F [Example 27]	–	220	2200	21
Cc1ccc(SN(C(=O)NC(=O)c2c(F)cccc2F)c2ccc(Cl)cc2)cc1 [Example 11]	–	23	680	25
Cc1cccc(SN(C(=O)NC(=O)c2c(F)cccc2F)c2ccc(C(F)(F)F)cc2)c1 [Example 17]	–	260	2800	160
O=C(NC(=O)N(Sc1ccc(Cl)cc1)c1ccc(OC(F)(F)F)cc1)c1ccccc1Cl [Example 33]	–	57	1300	44
Cc1cccc(SN(C(=O)NC(=O)c2c(F)cccc2F)c2ccc(Cl)cc2)c1 [Example 10]	–	20	1400	24
O=C(NC(=O)N(SC(Cl)(Cl)Cl)c1ccc(C(F)(F)F)cc1)c1c(F)cccc1F [Example 6, 2,6-Difluoro-N-[[[(trichloromethyl)thio]-N-[4-(trifluoromethyl)phenyl]amino]carbonyl]benzamide]	–	260	400	34
O=C(NC(=O)N(Sc1ccccc1[N+](=O)[O-])c1ccc(Oc2ccc(C(F)(F)F)cc2Cl)cc1)c1c(F)cccc1F [Example 3]	18800 (≈ 30.1 mM)	4500	0	–

From patent publication US4497822A, “Insecticidal N-benzoyl-N'-phenyl-N'-(R-thio)ureas” (Shell Oil Company, priority 1982, dated 1985)
